Measured values from patent publication US20070275932A1, “Aryl, heteroaromatic and bicyclic aryl nitrone compounds, prodrugs and pharmaceutical compositions of the same to treat human disorders” (Renovis, Inc., priority 2003, published 2007).
Counter-ions that a name gives are not always drawn.

test: Free radical-scavenging/antioxidant assay (DPPH); assay type: biochemical; settings: 50 μM DPPH in 80% methanol, absorbance at 520 nm, 24 h time point (steady state); read-out: EC50 (concentration at which a compound reduces by 50% the peak absorbance of DPPH at 520 nm)
Experimental: Nitrone compounds of the present invention were tested for their free-radical scavenging/antioxidant activity in an in vitro assay that is accepted by those skilled in the art as a model for conditions involving the generation of free radicals. The assay is based on a reaction between a free-radical donor, 2,2-diphenyl-1-picrylhydrazyl (DPPH), and a radical scavenger/antioxidant to be tested for free-radical scavenging activity. Upon donation of the free-radical electron to the purported radical scavenger, the peak visible absorbance of DPPH (515-520 nm) decreases so that optical density readings at this part of the visual spectrum reflect the progression of the following reaction: DPPH∩+AH→DPPH-H+A∩ where AH is a hypothetical radical scavenger/antioxidant. The assay is based on a protocol originally detailed in Brand-Williams, W. et al., 1995, Use of a Free Radical Method to Evaluate Antioxidant Activity, Lebensm. Wiss. Technol., 28:25-30, with further modifications described in L. R. Fukumoto and G. Mazza, 2000, Assessing Antioxidant and Prooxidant Activities of Phenolic Compounds, J. Agric. Food Chem., 48:3597-3604.
The antioxidant assay was performed using Perkin-Elmer 96-well, clear-bottom, black-wall plates (ordered from E & K Scientific Products) and a Tecan Safire absorbance plate reader. The positive controls were Trolox (6-hydroxy-2,5,7,8-tetramethylchromane-2-carboxylic acid, Sigma-Aldrich), BHA (2(3)-tert-butylhydroquinone monomethyl ether, Sigma-Aldrich), PBN (C-(phenyl)-N-(tert-butyl)nitrone, Sigma-Aldrich) and S-PBN (C-(2-sulfophenyl)-N-(tert-butyl)nitrone, sodium salt, prepared according to E. G. Janzen and R. V. Shetty, 1979, Tetrahedron Lett., 35: 3229-32), and the negative control (i.e., vehicle) was DMSO. In brief, 2 μL of 100×DMSO stock of the desired final concentration of each control or nitrone compound to be tested in the same batch was added to a separate well. To each well was then added 198 μL of a freshly made 50 μM DPPH (Sigma-Aldrich) solution in 80% methanol using a multi-channel pipette. The absorbance was immediately read on the plate reader at 520 nm and thereafter read periodically to assess kinetics until all reactions reached completion (i.e., steady state). Since the steady-state point was 24 h, the assay results are shown from the 24 h time point. The absorbance at 520 nm (OD) was plotted versus the concentrations of the controls and nitrone compounds to assess dose-response and interpolate the EC50 values of the controls and test compounds.

Row | Molecule | EC50 [µM]
1 | O=C(O)c1ccccc1/C=[N+](\[O-])Cc1ccccc1 [Example 9, N-Benzyl-C-(2-carboxyphenyl)nitrone] | 10 to 100
2 | CC(C)(C)/[N+]([O-])=C/c1ccccc1N1CCN(c2ccc(C(F)(F)F)cn2)CC1 [Example 23, N-(tert-Butyl)-C-{2-[4-(5-(trifluoromethyl)pyridin-2-yl)piperazin-1-yl]phenyl}nitrone] | 100 to 500
3 | COc1cc(/C=[N+](\[O-])Cc2ccccc2)c(C(=O)O)c(OC)c1 [Example 12, N-Benzyl-C-(2-carboxy-3,5-dimethoxyphenyl)nitrone] | 10 to 100
4 | [O-]/[N+](=C\c1cccnc1N1CCOCC1)C1CCCCC1 [Example 47, N-Cyclohexyl-C-[2-(1-morpholino)pyridin-3-yl]nitrone] | > 1000
5 | O=[N+]([O-])c1ccc(SC2CCCC2)c(/C=[N+](\[O-])Cc2ccccc2)c1 [Example 31, N-Benzyl-C-[2-(cyclopentylthio)-5-nitrophenyl]nitrone] | 500 to 1000
6 | COC(=O)c1c(/C=[N+](\[O-])Cc2ccccc2)cc(OC)cc1OC [Example 6, N-Benzyl-C-[2-(methoxycarbonyl)-3,5-dimethoxyphenyl]nitrone] | 100 to 500
7 | 2(3)-tert-butylhydroquinone monomethyl ether [BHA, reference compound] | < 10
8 | CC(C)(C)/[N+]([O-])=C/c1cccnc1N1CCOCC1 [Example 46, N-(tert-Butyl)-C-[2-(1-morpholino)pyridin-3-yl]nitrone] | > 1000
9 | [O-]/[N+](=C\c1ccccc1-n1cccn1)Cc1ccccc1 [Example 19, N-Benzyl-C-[2-(pyrazol-1-yl)phenyl]nitrone] | > 1000
10 | [O-]/[N+](=C\c1ccccc1Sc1ccc(Cl)cc1)C1CCCCC1 [Example 27, N-Cyclohexyl-C-[2-(4-chlorophenylthio)phenyl]nitrone] | > 1000
11 | O=[N+]([O-])c1ccc(Sc2ccccn2)c(/C=[N+](\[O-])C2CCCCC2)c1 [Example 37, N-Cyclohexyl-C-[5-nitro-2-(pyridin-2-ylthio)phenyl]nitrone] | 10 to 100
12 | O=C(O)c1ccsc1/C=[N+](\[O-])C1CCCCC1 [Example 42, N-Cyclohexyl-C-(3-carboxythiophen-2-yl]nitrone] | 100 to 500
13 | O=C(O)c1ccccc1/C=[N+](\[O-])C1CCCCC1 [Example 8, N-Cyclohexyl-C-(2-carboxyphenyl)nitrone] | 10 to 100
14 | CC(C)(C)/[N+]([O-])=C/c1cc([N+](=O)[O-])ccc1Sc1ccccn1 [Example 36, N-(tert-Butyl)-C-[5-nitro-2-(pyridin-2-ylthio)phenyl]nitrone] | 100 to 500
15 | Cc1c(C)c2c(c(C)c1O)CCC(C)(C(=O)O)O2 (centres unmarked) [Trolox, 6-hydroxy-2,5,7,8-tetramethylchromane-2-carboxylic acid, reference compound] | < 10
16 | [O-]/[N+](=C\c1cccnc1N1CCOCC1)Cc1ccccc1 [Example 48, N-Benzyl-C-[2-(1-morpholino)pyridin-3-yl]nitrone] | > 1000
17 | [O-]/[N+](=C\c1ccccc1N1CCN(c2ccc(C(F)(F)F)cn2)CC1)Cc1ccccc1 [Example 25, N-Benzyl-C-{2-[4-(5-(trifluoromethyl)pyridin-2-yl)piperazin-1-yl]phenyl}nitrone] | < 10
18 | [O-]/[N+](=C\c1ccccc1N1CCN(c2ccc(C(F)(F)F)cn2)CC1)C1CCCCC1 [Example 24, N-Cyclohexyl-C-{2-[4-(5-(trifluoromethyl)pyridin-2-yl)piperazin-1-yl]phenyl}nitrone] | 10 to 100
19 | COC(=O)c1[nH]c2ccccc2c1/C=[N+](\[O-])Cc1ccccc1 [Example 40, N-Benzyl-C-[2-(methoxycarbonyl)-1H-indol-3-yl]nitrone] | > 1000
20 | [O-]/[N+](=C\c1ccccc1N1CCOCC1)C1CCCCC1 [Example 21, N-Cyclohexyl-C-[2-(1-morpholino)phenyl]nitrone] | 100 to 500
21 | O=[N+]([O-])c1ccc(SC2CCCC2)c(/C=[N+](\[O-])C2CCCCC2)c1 [Example 30, N-Cyclohexyl-C-[2-(cyclopentylthio)-5-nitrophenyl]nitrone] | > 1000
22 | Cc1ccc(Sc2ncccc2/C=[N+](\[O-])C(C)(C)C)cc1 [Example 43, N-(tert-Butyl)-C-[2-(4-methylphenylthio)pyridin-3-yl]nitrone] | > 1000
23 | CC(C)(C)/[N+]([O-])=C/c1ccccc1N1CCOCC1 [Example 20, N-(tert-Butyl)-C-[2-(1-morpholino)phenyl]nitrone] | 100 to 500
24 | COC(=O)c1[nH]c2ccccc2c1/C=[N+](\[O-])C1CCCCC1 [Example 39, N-Cyclohexyl-C-[2-(methoxycarbonyl)-1H-indol-3-yl]nitrone] | > 1000
25 | [O-]/[N+](=C\c1ccccc1N1CCOCC1)Cc1ccccc1 [Example 22, N-Benzyl-C-[2-(1-morpholino)phenyl]nitrone] | > 1000
26 | [O-]/[N+](=C\c1ccccc1-n1cccn1)C1CCCCC1 [Example 18, N-Cyclohexyl-C-[2-(pyrazol-1-yl)phenyl]nitrone] | > 1000
27 | COC(=O)c1ccccc1/C=[N+](\[O-])Cc1ccccc1 [Example 3, N-Benzyl-C-[2-(methoxycarbonyl)phenyl]nitrone] | 500 to 1000
28 | COC(=O)c1c(/C=[N+](\[O-])C2CCCCC2)cc(OC)cc1OC [Example 5, N-Cyclohexyl-C-[2-(methoxycarbonyl)-3,5-dimethoxyphenyl]nitrone] | 100 to 500

Continued, values first:

Row | EC50 [µM] | Molecule
29 | 500 to 1000 | CSc1nc2ccccc2cc1/C=[N+](\[O-])C(C)(C)C [Example 49, N-(tert-Butyl)-C-[2-(methylthio)quinolin-3-yl]nitrone]
30 | > 1000 | CCSc1ccccc1/C=[N+](\[O-])C(C)(C)C [Example 33, N-(tert-Butyl)-C-[2-(ethylthio)phenyl]nitrone]
31 | > 1000 | CC(C)(C)C(=O)Nc1cccc(/C=[N+](\[O-])C(C)(C)C)n1 [Example 51, N-(tert-Butyl)-C-[6-(2,2-dimethylpropanamido)pyridin-2-yl]nitrone]
32 | > 1000 | CSc1cc(C(F)(F)F)ccc1/C=[N+](\[O-])C(C)(C)C [Example 35, N-(tert-Butyl)-C-[2-(methylthio)-4-(trifluoromethyl)phenyl]nitrone]
33 | > 1000 | CSc1ccc(/C=[N+](\[O-])C(C)(C)C)c(SC)c1 [Example 32, N-(tert-Butyl)-C-[2,4-bis(methylthio)phenyl]nitrone]
34 | 500 to 1000 | COC(=O)c1ccccc1/C=[N+](\[O-])C(C)(C)C [Example 1, N-(tert-Butyl)-C-[2-(methoxycarbonyl)phenyl]nitrone]
35 | 10 to 100 | CC(C)(C)C(=O)Nc1cccc(/C=[N+](\[O-])Cc2ccccc2)n1 [Example 53, N-Benzyl-C-[6-(2,2-dimethylpropanamido)pyridin-2-yl]nitrone]
36 | 100 to 500 | COC(=O)c1c(/C=[N+](\[O-])C(C)(C)C)cc(OC)cc1OC [Example 4, N-(tert-Butyl)-C-[2-(methoxycarbonyl)-3,5-dimethoxyphenyl]nitrone]
37 | > 1000 | CC(C)(C)/[N+]([O-])=C/c1ccccc1-n1cccn1 [Example 17, N-(tert-Butyl)-C-[2-(pyrazol-1-yl)phenyl]nitrone]
38 | 500 to 1000 | COc1cc(/C=[N+](\[O-])C(C)(C)C)c(C(=O)O)c(OC)c1 [Example 10, N-(tert-Butyl)-C-(2-carboxy-3,5-dimethoxyphenyl)nitrone]
39 | > 1000 | COC(=O)c1[nH]c2ccccc2c1/C=[N+](\[O-])C(C)(C)C [Example 38, N-(tert-Butyl)-C-[2-(methoxycarbonyl)-1H-indol-3-yl]nitrone]
40 | 10 to 100 | CC(C)(C)/[N+]([O-])=C/c1sccc1C(=O)O [Example 41, N-(tert-Butyl)-C-(3-carboxythiophen-2-yl)nitrone]
41 | > 1000 | CC(C)(C)[N+]([O-])=Cc1ccccc1S(=O)(=O)O [S-PBN, C-(2-sulfophenyl)-N-(tert-butyl)nitrone, sodium salt, reference compound]
42 | 100 to 500 | CC(C)(C)/[N+]([O-])=C/c1ccccc1C(=O)O [Example 7, N-(tert-Butyl)-C-(2-carboxyphenyl)nitrone]
43 | 500 to 1000 | CC(C)(C)C(=O)Nc1cccc(/C=[N+](\[O-])C2CCCCC2)n1 [Example 52, N-Cyclohexyl-C-[6-(2,2-dimethylpropanamido)pyridin-2-yl]nitrone]
44 | > 1000 | CC(C)(C)[N+]([O-])=Cc1ccccc1 [PBN, C-(phenyl)-N-(tert-butyl)nitrone, reference compound]
